Laboratory results from patent publication US20200009137A1, “TOPICAL FORMULATIONS AND USES THEREOF” (SUN PHARMA GLOBAL FZE, priority 2015, published 2020).

Key:
[1] = Ocular tissue distribution of RX-10045 / RX-10008 (LC-MS/MS); type: in vivo, rabbit; details: topical ocular RX-10045 formulations 4×/day for 5 days, rabbits
Method: A study was conducted in rabbits to test the tolerance and ocular tissue distribution of two nanomicellar formulations of compound 1001 (RX10045) against matching placebos (Table 7a and 7b) and balanced saline solution (BSS). Healthy New Zealand female white rabbits (2-3 kg) were used for this study. One drop (approximately 35 μL) of study drug was applied o.d. 4×/day at two hour intervals for 5 days. One drop of BSS was applied to the contralateral eye.
Selected ocular fluids/tissues (aqueous humor, vitreous humor, conjunctiva, cornea, iris-ciliary body, lens, retina/choroid, and sclera) collected from two rabbits each in the RX-10045 (0.15% in HCO-60, 0.1% in HCO-40) treatment groups, and from one rabbit in each of the matching placebo groups, were assayed for compound 1001 and another resolvin by liquid chromatography-tandem mass spectrometry (LC-MS/MS). Warfarin-d5 and 5-HDA were used as internal standards for the analysis of RX-10045 and its active metabolite, RX-10008, respectively, in aqueous humor and vitreous humor. For the other ocular tissues (solid tissues), warfarin-d5 and phenyl acetic acid-d5 (PAA-d5) were used as the internal standards for compound 1001 and RX-10008, respectively. The analytical range for the solid tissues were 0.125-100 ng. The results of the solid tissue analyses were converted to ng/g by correcting for the amount of tissue analyzed.

[2] = 1H NMR qualitative studies for free drug; type: physicochemical; details: D2O; drug peaks evident in CDCl3
Method: To determine the absence of free drug in the outer aqueous environment, qualitative studies were conducted. Qualitative proton nuclear magnetic resonance (NMR) studies were conducted with Varian 400 MHz NMR. Deuterated chloroform and water as solvent systems were used to resuspend the formulation and NMR studies were performed.

## C#CC[C@@H](O)/C=C/C=C/C#C[C@@H](O)CCCC(=O)OC(C)C [compound 1001]
[1]
  Compound 1001 in the majority of ocular tissues: either not detected or was below the quantitation limit of the assay
[2]
  Free drug when MNF is resuspended in aqueous solution (qualitative proton NMR): not freely available
